Results taken from article PMC10892423 (Pharmaceutics, 2024).
≈ marks a conversion by molar mass, not a printed value. Each block holds one compound with its values, some of them ahead of it.

Tests used:
AmpC = target: T1, AmpC (Escherichia coli, UniProt P00811); experiment: β-lactamase inhibition, nitrocefin hydrolysis; format: biochemical
T1 construct: made in house
Description: (§1) Recombinant AmpC from Escherichia coli was produced according to a previously reported protocol. KPC-2 and NDM-1 […] were purchased from LifeSpan Biosciences, Inc. (Lynnwood, WA, USA) (LS-G26598) and RayBiotech, Inc. (Peachtree Corners, GA, USA) (230-00554), respectively. Genes encoding OXA-48 (residues 23–265) and VIM-2 (residues 27–266) were custom-synthesized (Bioneer Inc., Seoul, Republic of Korea) and expressed as previously described. The β-lactamase inhibitory activity of the title compounds was then determined according to the previously reported methods. Briefly, equal volumes (100 μL) of the title compounds (70–0.1 μM in PBS) and diluted enzyme stock were mixed (final concentration 2% of DMSO in 200 μL) in 96-well plates, which were then incubated at 37 °C for 20 min. The incubated mixture was added to each well containing substrates (nitrocefin for AmpC, KPC-2, OXA-48, and VIM-2; and imipenem for NDM-1) of final concentrations of 70 μM for nitrocefin and 100 μM for imipenem. Substrate hydrolysis was monitored at 486 nm (nitrocefin) or 300 nm (imipenem) for 15 min, using a Cytation 5 imaging multimode reader (BioTek Instruments Inc., Winooski, VT, USA). At the plateau level of hydrolysis, the corresponding rates of hydrolysis were compared to those obtained without inhibitors (100%) to determine the percentage of enzyme inhibition at each concentration of the title compounds. The IC50 values of the compounds were derived from sigmoidal dose–response curves, using GraphPad Prism 5 (GraphPad Software, Boston, MA, USA).

KPC-2 = target: T2, KPC-2 (Klebsiella pneumoniae, UniProt Q9F663); experiment: β-lactamase inhibition, nitrocefin hydrolysis; format: biochemical; details: nitrocefin substrate; read-out: β-Lactamases, IC50 KPC-2
T2 construct: purchased LifeSpan Biosciences, Inc. LS-G26598
Description: as §1

OXA-48 = target: T3, OXA-48 (Klebsiella pneumoniae, UniProt Q6XEC0); experiment: β-lactamase inhibition, nitrocefin hydrolysis; format: biochemical; details: nitrocefin substrate; read-out: β-Lactamases, IC50 OXA-48
T3 construct: Genes encoding OXA-48 (residues 23–265) and VIM-2 (residues 27–266) were custom-synthesized; made in house
Description: as §1

VIM-2 = target: T4, VIM-2 (Escherichia coli, UniProt Q5U7L7); experiment: β-lactamase inhibition, nitrocefin hydrolysis; format: biochemical; details: nitrocefin substrate; read-out: β-Lactamases, IC50 VIM-2
T4 construct: Genes encoding OXA-48 (residues 23–265) and VIM-2 (residues 27–266) were custom-synthesized; made in house
Description: as §1

NDM-1 = target: T5, NDM-1 (Klebsiella pneumoniae, UniProt C7C422); experiment: β-lactamase inhibition, imipenem hydrolysis; format: biochemical; details: imipenem substrate; read-out: β-Lactamases, IC50 NDM-1
T5 construct: purchased RayBiotech, Inc. 230-00554
Description: as §1

[1] = system: MBL-producing P. aeruginosa clinical isolates; experiment: MIC by broth microdilution (CLSI); format: cell-based, Pseudomonas aeruginosa; details: for MIC: Pseudomonas aeruginosa
Method: The DMSO stock solutions of the test compounds were serially diluted to the desired concentrations in CAMHB. Then, 10 μL of the bacterial suspension (5 × 10^5 colony forming units (CFU)/mL) was combined with 200 μL of DMSO stock solutions of the test compounds in 96-well microtiter plates (1% DMSO, final). After the incubation of the plate at 37 °C for 24 h, bacterial growth was visibly evaluated by monitoring the turbidity of the resulting suspension, and the MICs were determined as the lowest concentrations of the test compounds that inhibited the visible growth of the bacteria.

T3 sequence (Q6XEC0 23-265 limits assumed): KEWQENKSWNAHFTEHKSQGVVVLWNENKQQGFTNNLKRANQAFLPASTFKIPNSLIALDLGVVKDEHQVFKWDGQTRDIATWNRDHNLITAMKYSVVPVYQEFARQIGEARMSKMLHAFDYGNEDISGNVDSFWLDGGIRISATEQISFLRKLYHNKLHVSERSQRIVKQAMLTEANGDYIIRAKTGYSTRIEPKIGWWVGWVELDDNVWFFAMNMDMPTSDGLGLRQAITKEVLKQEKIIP
T5 sequence (C7C422 29-270, looked up, species assumed): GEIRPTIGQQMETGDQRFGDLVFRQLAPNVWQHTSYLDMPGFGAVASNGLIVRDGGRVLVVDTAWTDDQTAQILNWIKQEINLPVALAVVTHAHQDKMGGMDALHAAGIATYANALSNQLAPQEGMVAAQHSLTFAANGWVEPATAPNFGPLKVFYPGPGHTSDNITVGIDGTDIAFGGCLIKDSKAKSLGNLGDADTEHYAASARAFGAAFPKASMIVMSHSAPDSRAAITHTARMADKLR
T1 sequence (P00811 20-377): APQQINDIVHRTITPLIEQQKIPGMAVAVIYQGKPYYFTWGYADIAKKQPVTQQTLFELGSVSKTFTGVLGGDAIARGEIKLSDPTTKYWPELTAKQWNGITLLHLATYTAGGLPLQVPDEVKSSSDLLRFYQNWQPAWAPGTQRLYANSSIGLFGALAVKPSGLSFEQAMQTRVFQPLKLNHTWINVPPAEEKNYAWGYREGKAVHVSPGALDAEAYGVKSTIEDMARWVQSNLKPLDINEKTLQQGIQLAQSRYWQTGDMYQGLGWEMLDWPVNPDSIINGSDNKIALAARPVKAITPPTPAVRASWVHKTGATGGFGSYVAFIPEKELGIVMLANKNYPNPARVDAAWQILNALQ
T2 sequence (Q9F663 25-293, looked up): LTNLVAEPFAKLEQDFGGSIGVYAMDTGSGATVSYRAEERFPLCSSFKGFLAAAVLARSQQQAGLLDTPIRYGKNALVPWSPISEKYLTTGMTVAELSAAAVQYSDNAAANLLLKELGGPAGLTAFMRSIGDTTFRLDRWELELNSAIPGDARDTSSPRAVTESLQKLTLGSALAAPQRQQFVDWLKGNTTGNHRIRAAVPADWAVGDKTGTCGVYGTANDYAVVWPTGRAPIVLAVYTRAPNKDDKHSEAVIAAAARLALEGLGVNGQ

Compound: O=c1c(OCCOCCOCCO)c(-c2ccc(F)c(F)c2)oc2cc(O)cc(O)c12 [Compound 10]
IC50 (AmpC): > 50 µM
IC50 (KPC-2): > 50 µM
IC50 (OXA-48): > 100 µM
IC50 (VIM-2): > 100 µM
IC50 (NDM-1): > 50 µM

Compound: NCCOCCOc1c(-c2ccc(F)c(F)c2)oc2cc(O)cc(O)c2c1=O [Compound 11]
IC50 (AmpC): > 50 µM
IC50 (KPC-2): > 50 µM
IC50 (OXA-48): > 100 µM
IC50 (VIM-2): > 100 µM
IC50 (NDM-1): > 50 µM

Compound: O=c1c(OCCc2cccs2)c(-c2ccc(F)c(F)c2)oc2cc(O)cc(O)c12 [Compound 12]
IC50 (AmpC): > 50 µM
IC50 (KPC-2): > 50 µM
IC50 (OXA-48): > 100 µM
IC50 (VIM-2): > 100 µM
IC50 (NDM-1): > 50 µM

Compound: CN(C)CCOc1c(-c2ccc(F)c(F)c2)oc2cc(O)cc(O)c2c1=O [Compound 13]
IC50 (AmpC): > 50 µM
IC50 (KPC-2): > 50 µM
IC50 (OXA-48): > 100 µM
IC50 (VIM-2): > 100 µM
IC50 (NDM-1): > 50 µM

MIC ([1]; PA-001, blaNDM): > 16 µg/mL
MIC ([1]; PA-002, blaIMP): > 16 µg/mL
MIC ([1]; PA-007, blaNDM): 16 µg/mL (≈ 33.3 µM)
MIC ([1]; PA-008, blaNDM): > 16 µg/mL
MIC ([1]; PA-011, blaNDM): > 16 µg/mL
MIC ([1]; PA-012, blaNDM): > 16 µg/mL
MIC ([1]; PA-016, blaIMP): > 16 µg/mL
MIC ([1]; PA-017, blaNDM): > 16 µg/mL
MIC ([1]; PA-019, blaNDM): > 16 µg/mL
MIC ([1]; PA-020, blaNDM): 16 µg/mL (≈ 33.3 µM)
MIC ([1]; PA-023, blaNDM): > 16 µg/mL
MIC ([1]; PA-025, blaNDM): > 16 µg/mL
MIC ([1]; PA-027, blaIMP): > 16 µg/mL
MIC ([1]; PA-028, blaNDM): > 16 µg/mL
MIC ([1]; PA-029, blaIMP): > 16 µg/mL
MIC ([1]; PA-030, blaIMP): > 16 µg/mL
MIC ([1]; PA-034, blaNDM): > 16 µg/mL
MIC ([1]; PA-036, blaNDM): > 16 µg/mL
MIC ([1]; PA-038, blaNDM): > 16 µg/mL
MIC ([1]; PA-039, blaNDM): > 16 µg/mL
MIC ([1]; PA-044, blaNDM): > 16 µg/mL
Compound: CO/N=C(\C(=O)N[C@@H]1C(=O)N2C(C(=O)[O-])=C(C[N+]3(C)CCCC3)CS[C@H]12)c1csc(N)n1 [FEP, cefepime]

MIC ([1]; PA-001, blaNDM): > 8 µg/mL
MIC ([1]; PA-002, blaIMP): > 8 µg/mL
MIC ([1]; PA-007, blaNDM): > 8 µg/mL
MIC ([1]; PA-008, blaNDM): > 8 µg/mL
MIC ([1]; PA-011, blaNDM): > 8 µg/mL
MIC ([1]; PA-012, blaNDM): 8 µg/mL (≈ 16.8 µM)
MIC ([1]; PA-016, blaIMP): > 8 µg/mL
MIC ([1]; PA-017, blaNDM): > 8 µg/mL
MIC ([1]; PA-019, blaNDM): > 8 µg/mL
MIC ([1]; PA-020, blaNDM): > 8 µg/mL
MIC ([1]; PA-023, blaNDM): > 8 µg/mL
MIC ([1]; PA-025, blaNDM): > 8 µg/mL
MIC ([1]; PA-027, blaIMP): > 8 µg/mL
MIC ([1]; PA-028, blaNDM): > 8 µg/mL
MIC ([1]; PA-029, blaIMP): > 8 µg/mL
MIC ([1]; PA-030, blaIMP): > 8 µg/mL
MIC ([1]; PA-034, blaNDM): > 8 µg/mL
MIC ([1]; PA-036, blaNDM): > 8 µg/mL
MIC ([1]; PA-038, blaNDM): > 8 µg/mL
MIC ([1]; PA-039, blaNDM): ≤ 2 µg/mL
MIC ([1]; PA-044, blaNDM): > 8 µg/mL
Compound: CNC(C)C1CCC(N)C(OC2C(N)CC(N)C(OC3OCC(C)(O)C(NC)C3O)C2O)O1 (centres unmarked) [GEN, gentamicin]

MIC ([1]; PA-001, blaNDM): > 8 µg/mL
MIC ([1]; PA-002, blaIMP): > 8 µg/mL
MIC ([1]; PA-007, blaNDM): > 8 µg/mL
MIC ([1]; PA-008, blaNDM): > 8 µg/mL
MIC ([1]; PA-011, blaNDM): > 8 µg/mL
MIC ([1]; PA-012, blaNDM): > 8 µg/mL
MIC ([1]; PA-016, blaIMP): > 8 µg/mL
MIC ([1]; PA-017, blaNDM): > 8 µg/mL
MIC ([1]; PA-019, blaNDM): > 8 µg/mL
MIC ([1]; PA-020, blaNDM): > 8 µg/mL
MIC ([1]; PA-023, blaNDM): > 8 µg/mL
MIC ([1]; PA-025, blaNDM): > 8 µg/mL
MIC ([1]; PA-027, blaIMP): > 8 µg/mL
MIC ([1]; PA-028, blaNDM): > 8 µg/mL
MIC ([1]; PA-029, blaIMP): > 8 µg/mL
MIC ([1]; PA-030, blaIMP): > 8 µg/mL
MIC ([1]; PA-034, blaNDM): > 8 µg/mL
MIC ([1]; PA-036, blaNDM): > 8 µg/mL
MIC ([1]; PA-038, blaNDM): > 8 µg/mL
MIC ([1]; PA-039, blaNDM): > 8 µg/mL
MIC ([1]; PA-044, blaNDM): > 8 µg/mL
Compound: C[C@@H](O)[C@H]1C(=O)N2C(C(=O)O)=C(SCCN=CN)C[C@H]12 [IPM, imipenem]

MIC ([1]; PA-001, blaNDM): > 32 µg/mL
MIC ([1]; PA-002, blaIMP): > 32 µg/mL
MIC ([1]; PA-007, blaNDM): > 32 µg/mL
MIC ([1]; PA-008, blaNDM): > 32 µg/mL
MIC ([1]; PA-011, blaNDM): > 32 µg/mL
MIC ([1]; PA-012, blaNDM): > 32 µg/mL
MIC ([1]; PA-016, blaIMP): > 32 µg/mL
MIC ([1]; PA-017, blaNDM): > 32 µg/mL
MIC ([1]; PA-019, blaNDM): > 32 µg/mL
MIC ([1]; PA-020, blaNDM): > 32 µg/mL
MIC ([1]; PA-023, blaNDM): > 32 µg/mL
MIC ([1]; PA-025, blaNDM): > 32 µg/mL
MIC ([1]; PA-027, blaIMP): > 32 µg/mL
MIC ([1]; PA-028, blaNDM): > 32 µg/mL
MIC ([1]; PA-029, blaIMP): > 32 µg/mL
MIC ([1]; PA-030, blaIMP): > 32 µg/mL
MIC ([1]; PA-034, blaNDM): > 32 µg/mL
MIC ([1]; PA-036, blaNDM): > 32 µg/mL
MIC ([1]; PA-038, blaNDM): > 32 µg/mL
MIC ([1]; PA-039, blaNDM): > 32 µg/mL
MIC ([1]; PA-044, blaNDM): > 32 µg/mL
Compound: C[C@@H](O)[C@H]1C(=O)N2C(C(=O)O)=C(S[C@@H]3CN[C@H](C(=O)N(C)C)C3)[C@H](C)[C@H]12 [MEM, meropenem]

Compound: colistin [CST]
MIC Value ([1]; PA-001, blaNDM): ≤1 µg/mL
MIC Value ([1]; PA-002, blaIMP): ≤1 µg/mL
MIC Value ([1]; PA-007, blaNDM): ≤1 µg/mL
MIC Value ([1]; PA-008, blaNDM): ≤1 µg/mL
MIC Value ([1]; PA-011, blaNDM): ≤1 µg/mL
MIC Value ([1]; PA-012, blaNDM): ≤1 µg/mL
MIC Value ([1]; PA-016, blaIMP): ≤1 µg/mL
MIC Value ([1]; PA-017, blaNDM): ≤1 µg/mL
MIC Value ([1]; PA-019, blaNDM): ≤1 µg/mL
MIC Value ([1]; PA-020, blaNDM): ≤1 µg/mL
MIC Value ([1]; PA-023, blaNDM): ≤1 µg/mL
MIC Value ([1]; PA-025, blaNDM): ≤1 µg/mL
MIC Value ([1]; PA-027, blaIMP): ≤1 µg/mL
MIC Value ([1]; PA-028, blaNDM): ≤1 µg/mL
MIC Value ([1]; PA-029, blaIMP): ≤1 µg/mL
MIC Value ([1]; PA-030, blaIMP): ≤1 µg/mL
MIC Value ([1]; PA-034, blaNDM): ≤1 µg/mL
MIC Value ([1]; PA-036, blaNDM): ≤1 µg/mL
MIC Value ([1]; PA-038, blaNDM): ≤1 µg/mL
MIC Value ([1]; PA-039, blaNDM): ≤1 µg/mL
MIC Value ([1]; PA-044, blaNDM): ≤1 µg/mL
